Results: patent publication US8637670B2, “Imidazo [4,5-C]quinoline derivatives and their use in the treatment of tumors and/or inflammation” (Piramal Enterprises Limited, priority 2009, dated 2014)

Legend:
[1] = biological target: T1, PI3Kα kinase (Homo sapiens, UniProt P42336); experiment: PI3Kα assay (32P incorporation into phosphatidylinositol, TLC densitometry); type: biochemical; conditions: for inhibition at 0.1 µM: At 100 nM; for inhibition at 1 µM: At 1000 nM
T1 construct: purchased Millipore, USA
T1 sequence (P42336 whole entry): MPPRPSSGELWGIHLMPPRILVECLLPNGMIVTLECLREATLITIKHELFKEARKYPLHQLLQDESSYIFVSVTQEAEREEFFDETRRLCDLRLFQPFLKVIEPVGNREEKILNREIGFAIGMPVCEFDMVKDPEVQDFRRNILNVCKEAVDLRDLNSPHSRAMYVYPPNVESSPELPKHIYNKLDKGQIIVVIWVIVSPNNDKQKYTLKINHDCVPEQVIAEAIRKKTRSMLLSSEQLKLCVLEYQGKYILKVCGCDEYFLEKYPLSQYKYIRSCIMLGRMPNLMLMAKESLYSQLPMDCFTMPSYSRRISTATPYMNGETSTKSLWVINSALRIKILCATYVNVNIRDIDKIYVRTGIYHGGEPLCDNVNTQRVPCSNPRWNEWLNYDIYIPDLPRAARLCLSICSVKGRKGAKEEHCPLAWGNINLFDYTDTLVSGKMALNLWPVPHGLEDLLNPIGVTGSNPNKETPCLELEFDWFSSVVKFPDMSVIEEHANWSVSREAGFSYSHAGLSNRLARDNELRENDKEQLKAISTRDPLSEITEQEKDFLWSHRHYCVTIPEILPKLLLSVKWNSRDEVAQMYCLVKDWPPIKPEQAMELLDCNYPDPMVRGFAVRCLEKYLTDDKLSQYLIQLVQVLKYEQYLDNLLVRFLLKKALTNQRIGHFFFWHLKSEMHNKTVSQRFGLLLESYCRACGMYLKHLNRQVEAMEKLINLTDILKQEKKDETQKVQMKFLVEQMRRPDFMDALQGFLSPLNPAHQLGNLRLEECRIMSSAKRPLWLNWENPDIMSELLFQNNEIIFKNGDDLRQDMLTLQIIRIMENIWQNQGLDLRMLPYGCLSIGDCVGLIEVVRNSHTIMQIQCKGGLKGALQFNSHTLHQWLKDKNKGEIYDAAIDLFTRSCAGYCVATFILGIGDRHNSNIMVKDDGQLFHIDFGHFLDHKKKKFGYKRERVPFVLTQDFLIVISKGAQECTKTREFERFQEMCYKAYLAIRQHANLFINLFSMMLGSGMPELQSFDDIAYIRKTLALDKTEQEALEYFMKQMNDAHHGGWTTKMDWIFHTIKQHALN
T1 sequence (P27986 whole entry partner): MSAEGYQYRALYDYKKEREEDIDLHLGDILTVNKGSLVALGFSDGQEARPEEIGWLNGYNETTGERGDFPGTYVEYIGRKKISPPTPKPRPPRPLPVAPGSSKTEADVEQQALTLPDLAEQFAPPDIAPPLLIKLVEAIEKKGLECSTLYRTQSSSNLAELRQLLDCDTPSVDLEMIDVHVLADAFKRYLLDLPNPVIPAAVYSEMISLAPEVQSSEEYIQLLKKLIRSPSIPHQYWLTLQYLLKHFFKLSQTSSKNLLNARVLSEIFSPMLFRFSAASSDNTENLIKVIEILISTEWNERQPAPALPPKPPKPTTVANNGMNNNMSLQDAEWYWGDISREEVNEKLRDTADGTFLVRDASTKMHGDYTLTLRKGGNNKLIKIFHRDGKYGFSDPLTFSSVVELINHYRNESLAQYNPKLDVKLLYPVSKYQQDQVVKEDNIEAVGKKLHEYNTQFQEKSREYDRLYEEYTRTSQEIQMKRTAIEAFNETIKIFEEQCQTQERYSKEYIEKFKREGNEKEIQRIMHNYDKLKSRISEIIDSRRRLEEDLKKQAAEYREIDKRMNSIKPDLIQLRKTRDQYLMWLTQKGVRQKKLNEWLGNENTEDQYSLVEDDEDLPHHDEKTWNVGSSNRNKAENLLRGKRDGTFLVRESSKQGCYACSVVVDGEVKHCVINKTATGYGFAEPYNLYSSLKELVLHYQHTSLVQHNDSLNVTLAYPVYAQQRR
Summary of the method: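 Human PI3Kα (20 ng) with 12.5 μg phosphatidylinositol, 10 μM ATP plus [γ-32P]ATP in 10 mM Hepes pH 7.5, 50 mM MgCl2; 20 min at 30° C. Lipids extracted in MeOH/chloroform, resolved by silica TLC, and 32P-labelled PI quantified by autoradiography densitometry.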

[2] = test system: OVCAR 3; experiment: Cytotoxicity, propidium iodide assay, OVCAR 3; type: cell-based; conditions: Homo sapiens; Ovarian, OVCAR 3, 48 hours treatment; read-out: IC50, C3b (OVCAR 3)
Summary of the method: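 Read-out: propidium iodide fluorescence after freeze-thaw, viability expressed as percent of untreated wells (100%) and IC50 derived from the plotted percentages. Cells (3000/well) were pre-incubated 18-24 hours, then treated 48 hours with serial compound dilutions in medium.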

[3] = test system: BxPC3; experiment: Cytotoxicity, propidium iodide assay, BxPC3; type: cell-based; conditions: Homo sapiens, BXPC-3; Pancreatic, BxPC3, 48 hours treatment; read-out: IC50, C5c (BxPC3)
Experimental: (§1) The assay was designed as in the reference, Anticancer Drugs, 2002, 13, 1-8, the disclosure of which is incorporated by reference for the teaching of the assay.
(§2) Cells from cell lines as mentioned in the table given below were seeded at a density of 3000 cells/well in a white opaque 96-well plate. Following incubation at 37° C./5% CO2 for a period of 18-24 hours, the cells were treated with various concentrations (stock solution was prepared in DMSO and subsequent dilutions were made in media as per ATCC guidelines) of the compounds of Example 1-40 was for a period of 48 hours. At the end of treatment, the spent culture medium was discarded, the cells were washed with 1×PBS and 200 μl of 7 μg/ml propidium iodide was added to each well. The plates were frozen at −70° C. for at least 24 hours. For analysis, the plates were brought to RT, allowed to thaw and were read in PoleStar fluorimeter with the fluorescence setting. The percentage of viable cells in the non-treated set of wells was considered to be 100 and the percentage viability following treatment was calculated accordingly. IC50 values were calculated from graphs plotted using these percentages. Table 4 depicts the IC50 values of compounds of Example 1-40 in individual cell lines.
(§3) The abbreviations for the Cell Lines as used in Table 4 are: […]

[4] = test system: U 87 MG; experiment: Cytotoxicity, propidium iodide assay, U 87 MG; type: cell-based; conditions: Homo sapiens, Glioblastoma, 48 hours treatment, read-out: IC50, C7b (U 87 MG)
Experimental: as §1, §2, §3

[5] = test system: MDA MB 231; experiment: Cytotoxicity, propidium iodide assay, MDA MB 231; type: cell-based; conditions: Homo sapiens; Breast, MDA MB 231, 48 hours treatment; read-out: IC50, C6a (MDA MB 231)
Experimental: as §1, §2, §3

[6] = test system: MCF7; experiment: Cytotoxicity, propidium iodide assay, MCF7; type: cell-based; conditions: Homo sapiens; Breast, MCF7, 48 hours treatment; read-out: IC50, C6c (MCF7)
Experimental: as §1, §2, §3

[7] = test system: BT 549; experiment: Cytotoxicity, propidium iodide assay, BT 549; type: cell-based; conditions: Homo sapiens; Breast, BT 549, 48 hours treatment; read-out: IC50, C6d (BT 549)
Experimental: as §1, §2, §3

[8] = test system: T47D; experiment: Cytotoxicity, propidium iodide assay, T47D; type: cell-based; conditions: Homo sapiens, Breast, 48 hours treatment, read-out: IC50, C6e (T47D)
Experimental: as §1, §2, §3

Question: What does the source list for `Cc1cccc(S(=O)(=O)n2c(=O)n(-c3ccc(C(C)(C)C#N)cc3)c3c4cc(Br)ccc4ncc32)c1` [Example 3, 2-(4-(8-Bromo-2-oxo-3-(m-tolylsulfonyl)-2,3-dihydro-1H-imidazo[4,5-c]quinolin-1-yl)phenyl)-2-methylpropanenitrile]?
Answer: inhibition at 0.1 µM [1]: 10 to 50%; IC50 [2]: 1000 to 3000 nM; IC50 [3]: ≤ 1000 nM; IC50 [4]: 1000 to 3000 nM

Question: What does the source list for `C/C=C/C(=O)n1c(=O)n(-c2ccc(C(C)(C)C#N)cc2)c2c3cc(Br)ccc3ncc21` [Example 27, (E)-2-(4-(8-Bromo-3-but-2-enoyl-2-oxo-2,3-dihydro-1H-imidazo[4,5-c]quinolin-1-yl)phenyl)-2-methylpropanenitrile]?
Answer: inhibition at 1 µM [1]: 10 to 50%; IC50 [2]: ≤ 1000 nM; IC50 [5]: ≤ 1000 nM; IC50 [6]: ≤ 1000 nM; IC50 [7]: ≤ 1000 nM; IC50 [8]: ≤ 1000 nM

Question: How did the inhibition at 0.1 µM [1] turn out when `CC(C)(C#N)c1ccc(-n2c(=O)n(C(=O)c3ccccc3)c3cnc4ccc(Br)cc4c32)cc1` [Example 30, 2-(4-(3-Benzoyl-8-bromo-2-oxo-2,3-dihydro-1H-imidazo[4,5-c]quinolin-1-yl)phenyl)-2-methylpropanenitrile] was run?
Answer: The inhibition at 0.1 µM was > 50%.

Question: What about the IC50 [2] of the same compound?
Answer: Its IC50 is ≤ 1000 nM.

Question: And the IC50 [3]?
Answer: Its IC50 is ≤ 1000 nM.

Question: `CC(C)(C#N)c1ccc(-n2c(=O)n(C(=O)c3ccccc3)c3cnc4ccc(Cl)cc4c32)cc1` [Example 37, 2-(4-(3-Benzoyl-8-chloro-2-oxo-2,3-dihydro-1H-imidazo[4,5-c]quinolin-1-yl)phenyl)-2-methylpropanenitrile] was tested. Which inhibition at 0.1 µM [1] did it give?
Answer: Its inhibition at 0.1 µM is 10 to 50%.

Question: And the IC50 [2]?
Answer: Its IC50 is 1000 to 3000 nM.

Question: What about the IC50 [4] of the same compound?
Answer: Its IC50 is > 3000 nM.

Question: `C/C=C/C(=O)n1c(=O)n(-c2ccc(C(C)(C)C#N)cc2)c2c3cc(Cl)ccc3ncc21` [Example 38, (E)-2-(4-(3-But-2-enoyl-8-chloro-2-oxo-2,3-dihydro-1H-imidazo[4,5-c]quinolin-1-yl)phenyl)-2-methylpropanenitrile] was tested. Which inhibition at 1 µM [1] did it give?
Answer: Its inhibition at 1 µM is 10 to 50%.

Question: What about the IC50 [2] of the same compound?
Answer: The IC50 was ≤ 1000 nM.

Question: And the IC50 [5]?
Answer: Its IC50 is ≤ 1000 nM.

Question: And the IC50 [6]?
Answer: The IC50 was ≤ 1000 nM.

Question: And the IC50 [7]?
Answer: The IC50 was ≤ 1000 nM.

Question: What about the IC50 [8] of the same compound?
Answer: Its IC50 is ≤ 1000 nM.
